# In US20200078408A1, “GENE THERAPY” (Ospedale San Raffaele S.r.l., priority 2017, published 2020):
# Legend:
# B-ALL = B-ALL challenge of mice reconstituted with Tie2-vector transduced HSPCs (Example 7); type: in vivo, mouse; conditions: FIG. 31A
# Description: We employed a transplantable model of B-acute lymphoblastic leukaemia (B-ALL) closely mimicking human Philadelphia-like B-ALL (Nucera, S. et al. (2016) Cancer Cell 29: 905-921), which readily induces a protumoral, immunosuppressive microenvironment characterised, for example, by the appearance of myeloid-derived suppressor cells, downregulation of MHC class II genes and upregulation of IL10 and PD1.
# Eight weeks post transplant, upon reconstitution of the peripheral blood, animals received the B-ALL that is then followed by frequent blood collection. […]
# We then combined the contemporaneous delivery of several immunostimulatory cytokines into the leukaemia microenvironment using the Tie2 vector backbone equipped with different transgene cargo. […] Vector copy number of the single vectors measured by specific quantitative PCR assays was rather low ranging from 0.1 to 0.3 in the reconstituted mice. […]
# Furthermore, we evaluated the potential synergy of our gene therapy-based delivery of IFNy with other immunotherapeutic strategies including checkpoint inhibitors anti-CTLA-4 and anti-LAG-3 and the inhibitor of the IDO enzyme, 1-Methyl-Tryptophan (1-MT). […] Vector copy number of the single vectors measured by specific quantitative PCR assays was 0,72 for the Tig126/130a and 0,84 for the controls in the reconstituted mice. […]
# [1] = tested on: macrophages, myeloid-derived suppressor cells, CD8+ T cells; experiment: tumour microenvironment readouts at sacrifice in the B-ALL model (Example 7); type: in vivo, mouse; conditions: combined with gene therapy-based delivery of IFNγ (Tig126/130a)
smiles,measurement,setting,value
"Cn1cc(CC(N)C(=O)O)c2ccccc21 (stereo not shown) [1-MT, 1-Methyltryptophan]",disease progression,B-ALL; combined with gene therapy-based delivery of IFNγ (Tig126/130a),reduction of the disease progression
same,B-ALL progression,B-ALL; monotherapy,no beneficial effect
same,MHC class II expression on splenic and bone marrow macrophages,[1]; FIG. 31,significant increase
same,cytotoxic CD8+ T cells in the spleen,[1]; FIG. 31D,increase
